Measured values from patent publication US9975903B2, “Condensed heterocyclic compound” (Takeda Pharmaceutical Company Limited, priority 2014, dated 2018).
Counter-ions that a name gives are not always drawn.

biological target: T1, Human recombinant enteropeptidase (Homo sapiens, UniProt P98073); assay: Human enteropeptidase inhibitory activity (Test Example 1); format: biochemical; conditions: 3.3 μM test compound; inhibition rate from fluorescence intensity at 2 hours after the start of the reaction
T1 construct: purchased ITSI-Biosciences LLC #REN-260
T1 sequence (P98073 whole entry): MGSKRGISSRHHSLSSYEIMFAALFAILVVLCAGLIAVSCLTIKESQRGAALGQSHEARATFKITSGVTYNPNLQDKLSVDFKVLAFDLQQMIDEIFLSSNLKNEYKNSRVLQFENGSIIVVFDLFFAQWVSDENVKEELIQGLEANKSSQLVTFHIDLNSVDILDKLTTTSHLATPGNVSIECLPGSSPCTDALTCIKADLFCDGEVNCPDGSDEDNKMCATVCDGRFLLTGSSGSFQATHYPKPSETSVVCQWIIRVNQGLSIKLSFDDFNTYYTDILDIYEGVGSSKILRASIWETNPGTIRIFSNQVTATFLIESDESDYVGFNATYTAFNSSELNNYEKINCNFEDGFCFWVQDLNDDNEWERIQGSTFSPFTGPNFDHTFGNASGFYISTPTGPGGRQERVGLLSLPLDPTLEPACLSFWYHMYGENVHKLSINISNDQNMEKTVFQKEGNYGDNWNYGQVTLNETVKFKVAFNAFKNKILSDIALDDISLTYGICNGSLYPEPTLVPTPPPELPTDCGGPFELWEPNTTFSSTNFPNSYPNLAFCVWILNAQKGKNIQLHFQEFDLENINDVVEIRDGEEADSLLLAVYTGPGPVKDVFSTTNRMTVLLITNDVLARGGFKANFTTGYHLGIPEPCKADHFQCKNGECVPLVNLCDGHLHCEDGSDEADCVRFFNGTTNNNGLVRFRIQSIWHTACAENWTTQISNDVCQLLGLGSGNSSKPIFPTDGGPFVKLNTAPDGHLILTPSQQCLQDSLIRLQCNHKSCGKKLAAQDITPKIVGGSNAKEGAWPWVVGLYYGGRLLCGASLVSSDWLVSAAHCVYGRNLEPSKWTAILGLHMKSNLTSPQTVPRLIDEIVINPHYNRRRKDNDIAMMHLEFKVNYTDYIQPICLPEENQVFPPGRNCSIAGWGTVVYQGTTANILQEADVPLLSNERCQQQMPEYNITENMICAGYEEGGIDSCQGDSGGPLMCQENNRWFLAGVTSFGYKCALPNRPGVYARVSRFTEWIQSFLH
Experimental: Human recombinant enteropeptidase (#REN-260, ITSI-Biosciences LLC) was diluted with an assay buffer (50 mM Tricine, pH 8.0, 0.01 (w/v) %, Tween 20, 10 mM CaCl2) to prepare a 24 mU/mL enzyme solution. Subsequently, 5FAM-Abu-Gly-Asp-Asp-Asp-Lys-Ile-Val-Gly-Gly-Lys(CPQ2)-Lys-Lys-NH2 (SEQ ID NO: 1, purity: 97.2%, CPC Scientific Inc.) was diluted with the assay buffer to prepare a 2.1 μM substrate solution. A test compound is dissolved in DMSO into a 1 mM solution, and the solution was diluted by 100-fold with the assay buffer to give a compound solution. To a 384-well black plate (#784076, Greiner Bio-One), 5 μL of the compound solution and 5 μL of the substrate solution were added and mixed, and 5 μL of the enzyme solution was then added to the mixture, followed by mixing to start the reaction. The fluorescence intensity was measured with a fluorescence plate reader EnVision (The Perkin-Elmer Corp.) at an excitation wavelength of 485 nm and a fluorescence wavelength of 535 nm. The same reaction as above except that the test compound was not contained was performed (test compound non-addition group). Furthermore, the same reaction as above except that the test compound and the enzyme were not contained was performed (control group). The inhibition rate was calculated using the fluorescence intensity at 2 hours after the start of the reaction by the following expression: Inhibition rate (%)=(1−((fluorescence intensity of test compound addition group)−(fluorescence intensity of control group))/((fluorescence intensity of test compound non-addition group)−(fluorescence intensity of control group)))×100

Question: Which “3.3 μM Inhibition” value does the source give for `N=C(N)Nc1ccc2c(c1)OCCCOc1cc(CCC(=O)N[C@@H](CC(=O)O)C(=O)O)ccc1OC2=O` [Example 51, N-(3-(3-carbamimidamido-15-oxo-7,8-dihydro-6H,15H-dibenzo[b,f][1,4,8]trioxacyclo-undecin-11-yl)propanoyl) aspartic acid] here?
Answer: 101%

same assay, conditions: 3.3 μM test compound; inhibition rate from fluorescence intensity at 2 hours after the start of the reaction; read-out: 3.3 μM Inhibition

Question: With `N=C(N)Nc1ccc2c(c1)CCCOc1c(cccc1C(=O)N(CCC(=O)O)CC(=O)O)OC2=O` [Example 64, N-((10-carbamimidamido-13-oxo-6,7,8,13-tetrahydro-dibenzo[b,f] [1,4]dioxecin-4-yl)carbonyl)-N-(carboxymethyl)-beta-alanine] as the compound, how does the inhibition at 3.3 µM read?
Answer: 101%

Question: For `N=C(N)NCCC[C@H](NC(=O)c1cccc2c1OCCCc1cc(NC(=N)N)ccc1C(=O)O2)C(=O)O` [Example 8, N^~2^~-((10-carbamimidamido-13-oxo-6,7,8,13-tetrahydro-dibenzo[b,f] [1,4]dioxecin-4-yl)carbonyl)-L-arginine], which inhibition at 3.3 µM is on record?
Answer: 100%

Question: For `N=C(N)Nc1ccc2c(c1)OCCOc1c(CCC(=O)N[C@@H](CC(=O)O)C(=O)O)cccc1OC2=O` [Example 52, N-(3-(3-Carbamimidamido-14-oxo-6,7-dihydro-14H-dibenzo[b,h][1,4,7]trioxecin-9-yl)propanoyl)aspartic acid trifluoroacetate], which inhibition at 3.3 µM is on record?
Answer: 101%

Question: How did the inhibition at 3.3 µM turn out when `N=C(N)Nc1ccc2c(c1)CCCOc1c(cccc1C(=O)N(CC(=O)O)[C@@H](CC(=O)O)C(=O)O)OC2=O` [Example 104, N-((10-Carbamimidamido-13-oxo-6,7,8,13-tetrahydrodibenzo[b,f][1,4]dioxecin-4-yl)carbonyl)-N-(carboxymethyl)-L-aspartic acid] was run?
Answer: 100%

Question: For `N=C(N)Nc1ccc2c(c1)CCCOc1c(cccc1C(=O)NCCS(=O)(=O)O)OC2=O` [Example 28, 2-(((10-carbamimidamido-13-oxo-6,7,8,13-tetrahydro-dibenzo[b,f] [1,4]dioxecin-4-yl)carbonyl)amino) ethanesulfonic acid], which inhibition at 3.3 µM is on record?
Answer: 102%

Question: With `N=C(N)Nc1ccc2c(c1)CCc1nc(CCC(=O)N[C@@H](CC(=O)O)C(=O)O)ccc1OC2=O` [Example 48, N-(3-(9-Carbamimidamido-6-oxo-11,12-dihydro-6H-[2]benzoxocino[4,3-b]pyridin-2-yl)propanoyl)-L-aspartic acid trifluoroacetate] as the compound, how does the inhibition at 3.3 µM read?
Answer: 42%

Question: `N=C(N)Nc1ccc2c(c1)CCCOc1c(cccc1C(=O)N[C@@H](Cc1ccc(O)cc1)C(=O)O)OC2=O` [Example 10, N-((10-carbamimidamido-13-oxo-6,7,8,13-tetrahydro-dibenzo[b,f] [1,4]dioxecin-4-yl)carbonyl)-L-tyrosine] was tested. Which inhibition at 3.3 µM did it give?
Answer: 101%

Question: How did the inhibition at 3.3 µM turn out when `N=C(N)Nc1ccc2c(c1)CCCCc1cc3c(cc1OC2=O)OC[C@H]3CC(=O)N[C@@H](CC(=O)O)C(=O)O` [Example 39, N-(((10S)-3-carbamimidamido-15-oxo-5,7,8,10,11,15-hexahydro-6H-12, 14-dioxabenzo[5,6]cyclodeca[1,2-f]inden-10-yl)acetyl)-L-aspartic acid] was run?
Answer: 98%

Question: How did the inhibition at 3.3 µM turn out when `N=C(N)Nc1ccc2c(c1)CCCOc1c(cccc1C(=O)N(CC(=O)O)[C@@H](Cc1ccc(OCCNCC(=O)O)cc1)C(=O)O)OC2=O` [Example 121, N-((10-Carbamimidamido-13-oxo-6,7,8,13-tetrahydrodibenzo[b,f][1,4]dioxecin-4-yl)carbonyl)-N-(carboxymethyl)-O-(2-((carboxymethyl)amino)ethyl)-L-tyrosine] was run?
Answer: 101%

Question: How did the inhibition at 3.3 µM turn out when `N=C(N)Nc1ccc2c(c1)CCCOc1c(cccc1C(=O)N(CC(=O)O)Cc1cccc(CN(CC(=O)O)CC(=O)O)n1)OC2=O` [Example 126, N-((6-((bis(carboxy-methyl)amino)methyl)pyridin-2-yl)methyl)-N-((10-carbamimidamido-13-oxo-6,7,8,13-tetrahydro-dibenzo[b,f] [1,4]dioxecin-4-yl)carbonyl)glycine] was run?
Answer: 100%

Question: With `N=C(N)Nc1ccc2c(c1)CCCOc1c(cccc1C(=O)NC(CC(=O)O)CC(=O)O)OC2=O` [Example 11, 3-(((10-Carbamimidamido-13-oxo-6,7,8,13-tetrahydrodibenzo[b,f][1,4]dioxecin-4-yl)carbonyl)amino)pentanedioic acid] as the compound, how does the inhibition at 3.3 µM read?
Answer: 101%

Question: `N=C(N)Nc1ccc2c(c1)CCCOc1c(cccc1C(=O)N(Cc1cccc(C(=O)O)c1)C(CC(=O)O)CC(=O)O)OC2=O` [Example 144, 3-(((10-Carbamimidamido-13-oxo-6,7,8,13-tetrahydrodibenzo[b,f][1,4]dioxecin-4-yl)carbonyl) (3-carboxybenzyl)amino)pentanedioic acid] was tested. Which inhibition at 3.3 µM did it give?
Answer: 99%

Question: `N=C(N)Nc1ccc2c(c1)CCCOc1c(CCC(=O)N[C@@H](CC(N)=O)C(=O)O)cccc1OC2=O` [Example 97, N^~2^~-(3-(10-carbamimidamido-13-oxo-6,7,8,13-tetrahydro-dibenzo[b,f] [1,4]dioxecin-4-yl)propanoyl)-L-asparagine] was tested. Which inhibition at 3.3 µM did it give?
Answer: 100%

Question: How did the inhibition at 3.3 µM turn out when `N=C(N)c1ccc2c(c1)CCCCc1c(C(=O)N[C@@H](CC(=O)O)C(=O)O)cccc1C(=O)O2` [Example 98, N-((10-carbamimidoyl-14-oxo-5,7,8,14-tetrahydro-6H-dibenzo[b,h]oxecin-4-yl)carbonyl)-L-aspartic acid] was run?
Answer: 95%

Question: With `N=C(N)Nc1ccc2c(c1)CCCCc1c(cc3c(c1C(=O)N[C@@H](CC(=O)O)C(=O)O)CCO3)OC2=O` [Example 40, N-((3-Carbamimidamido-15-oxo-5,7,8,10,11,15-hexahydro-6H-12,14-dioxabenzo[5,6]cyclodeca[1,2-f]inden-9-yl)carbonyl)-L-aspartic acid] as the compound, how does the inhibition at 3.3 µM read?
Answer: 100%

Question: Which inhibition at 3.3 µM does the source give for `N=C(N)Nc1ccc2c(c1)CCCOc1c(cccc1C(=O)N(CC(=O)O)Cc1cccc(CN(CC(=O)O)CC(=O)O)c1)OC2=O` [Example 116, N-(3-((Bis(carboxymethyl)amino)methyl)benzyl)-N-((10-carbamimidamido-13-oxo-6,7,8,13-tetrahydrodibenzo[b,f][1,4]dioxecin-4-yl)carbonyl)glycine] here?
Answer: 99%

Question: For `N=C(N)Nc1ccc2c(c1)CCCOc1c(cccc1C(=O)N(CC(=O)O)[C@@H](Cc1ccc(O)cc1)C(=O)O)OC2=O` [Example 92, N-((10-carbamimidamido-13-oxo-6,7,8,13-tetrahydro-dibenzo[b,f] [1,4]dioxecin-4-yl)carbonyl)-N-(carboxymethyl)-L-tyrosine], which inhibition at 3.3 µM is on record?
Answer: 101%

Question: Which inhibition at 3.3 µM does the source give for `N=C(N)Nc1ccc2c(c1)OCCCCOc1c(CCC(=O)N[C@@H](CC(=O)O)C(=O)O)cccc1OC2=O` [Example 42, N-(3-(3-Carbamimidamido-16-oxo-6,7,8,9-tetrahydro-16H-dibenzo[b,f][1,4,8]trioxacyclododecin-11-yl)propanoyl)aspartic acid trifluoroacetate] here?
Answer: 100%

Question: For `N=C(N)Nc1ccc2c(c1)CCCCc1c(CCC(=O)N[C@@H](CC(=O)O)C(=O)O)ccc(F)c1OC2=O` [Example 41, N-(3-(3-carbamimidamido-12-fluoro-14-oxo-5,7,8,14-tetrahydro-6H-dibenzo[b,h]oxacin-9-yl)propanoyl)-L-aspartic acid], which inhibition at 3.3 µM is on record?
Answer: 71%

Question: How did the inhibition at 3.3 µM turn out when `N=C(N)Nc1ccc2c(c1)CCCOc1c(cccc1C(=O)N(CC(=O)O)Cc1ccccc1C(=O)O)OC2=O` [Example 127] was run?
Answer: 100%

Question: With `N=C(N)Nc1ccc2c(c1)CCc1cccc(CCC(=O)N[C@@H](CC(=O)O)C(=O)O)c1OC2=O` [Example 54, N-(3-(9-carbamimidamido-6-oxo-11,12-dihydro-6H-dibenzo[b,f]oxocin-4-yl)propanoyl)-L-aspartic acid] as the compound, how does the inhibition at 3.3 µM read?
Answer: 89%
